Laboratory results taken from publication PMC11345841, “Exploring 2-Sulfonylpyrimidine Warheads as Acrylamide Surrogates for Targeted Covalent Inhibition: A BTK Story” (Journal of Medicinal Chemistry, 2024).
Like-named read-outs stand apart in the source and are kept apart here.

Columns and labels:
Assay in all cases: KINOMEscan ScanTK
Format in all cases: binding
TRKA = target: T1, TRKA (Homo sapiens, UniProt P04629); settings: TRKA
T1 construct: purchased Eurofins DiscoverX KINOMEscan (scanTK)
T1 sequence (P04629 33-796): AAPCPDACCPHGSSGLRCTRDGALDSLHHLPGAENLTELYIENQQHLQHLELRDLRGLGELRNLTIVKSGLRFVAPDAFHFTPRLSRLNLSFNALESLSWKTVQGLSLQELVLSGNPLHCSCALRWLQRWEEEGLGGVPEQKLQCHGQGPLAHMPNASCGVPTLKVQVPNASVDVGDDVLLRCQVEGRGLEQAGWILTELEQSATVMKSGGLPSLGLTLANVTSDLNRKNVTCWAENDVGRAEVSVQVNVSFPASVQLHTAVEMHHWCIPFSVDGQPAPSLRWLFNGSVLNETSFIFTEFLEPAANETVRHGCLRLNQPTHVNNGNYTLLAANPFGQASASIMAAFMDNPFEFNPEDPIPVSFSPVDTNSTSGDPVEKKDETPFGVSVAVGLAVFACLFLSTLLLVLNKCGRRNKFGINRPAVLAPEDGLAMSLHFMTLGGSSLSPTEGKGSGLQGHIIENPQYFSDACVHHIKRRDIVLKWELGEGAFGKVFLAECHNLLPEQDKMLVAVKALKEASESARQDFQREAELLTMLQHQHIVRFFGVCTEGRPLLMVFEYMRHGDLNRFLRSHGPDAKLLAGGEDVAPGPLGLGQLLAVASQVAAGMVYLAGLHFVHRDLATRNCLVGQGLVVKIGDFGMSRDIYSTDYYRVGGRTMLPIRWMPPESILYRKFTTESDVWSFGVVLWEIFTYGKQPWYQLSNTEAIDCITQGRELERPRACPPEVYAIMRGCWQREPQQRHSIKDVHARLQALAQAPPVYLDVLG

PYK2 = target: T2, PYK2 (Homo sapiens, UniProt Q14289)
T2 construct: purchased Eurofins DiscoverX KINOMEscan (scanTK)

FLT3(N841I) = target: T3, FLT3(N841I) (Homo sapiens, UniProt P36888, N841I)
T3 construct: purchased Eurofins DiscoverX KINOMEscan (scanTK)
T3 sequence (P36888 27-993 N841I): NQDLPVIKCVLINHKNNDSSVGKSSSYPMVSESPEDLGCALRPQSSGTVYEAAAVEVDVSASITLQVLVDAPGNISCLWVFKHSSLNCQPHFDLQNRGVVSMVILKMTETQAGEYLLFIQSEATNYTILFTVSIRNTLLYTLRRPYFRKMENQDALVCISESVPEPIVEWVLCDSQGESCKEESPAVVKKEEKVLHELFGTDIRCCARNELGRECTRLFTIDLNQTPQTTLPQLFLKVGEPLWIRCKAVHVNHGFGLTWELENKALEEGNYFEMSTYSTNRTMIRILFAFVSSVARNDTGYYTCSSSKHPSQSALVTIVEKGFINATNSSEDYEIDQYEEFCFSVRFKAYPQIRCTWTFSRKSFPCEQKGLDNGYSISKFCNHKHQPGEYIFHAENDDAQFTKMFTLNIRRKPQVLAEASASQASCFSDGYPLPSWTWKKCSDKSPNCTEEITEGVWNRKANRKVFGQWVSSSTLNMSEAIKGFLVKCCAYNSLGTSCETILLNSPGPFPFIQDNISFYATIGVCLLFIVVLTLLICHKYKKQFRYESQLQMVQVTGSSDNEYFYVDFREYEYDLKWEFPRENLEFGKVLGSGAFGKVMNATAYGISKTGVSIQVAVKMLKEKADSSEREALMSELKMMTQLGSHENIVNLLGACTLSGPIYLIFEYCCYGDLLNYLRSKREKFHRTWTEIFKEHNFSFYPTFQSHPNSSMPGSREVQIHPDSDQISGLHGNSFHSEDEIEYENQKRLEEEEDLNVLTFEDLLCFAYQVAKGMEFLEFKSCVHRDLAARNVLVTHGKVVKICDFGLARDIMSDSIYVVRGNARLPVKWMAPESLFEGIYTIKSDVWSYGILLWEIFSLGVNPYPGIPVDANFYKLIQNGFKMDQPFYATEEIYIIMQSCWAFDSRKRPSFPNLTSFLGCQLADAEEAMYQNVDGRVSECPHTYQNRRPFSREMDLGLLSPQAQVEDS

SRC = target: T4, SRC (Homo sapiens, UniProt P12931)
T4 construct: purchased Eurofins DiscoverX KINOMEscan (scanTK)

BLK = target: T5, BLK (Homo sapiens, UniProt P51451); settings: BLK
T5 construct: purchased Eurofins DiscoverX KINOMEscan (scanTK)

CSF1R-autoinhibited = target: T6, CSF1R-autoinhibited (Homo sapiens, UniProt P07333)
T6 construct: purchased Eurofins DiscoverX KINOMEscan (scanTK)
T6 sequence (P07333 539-972 limits assumed): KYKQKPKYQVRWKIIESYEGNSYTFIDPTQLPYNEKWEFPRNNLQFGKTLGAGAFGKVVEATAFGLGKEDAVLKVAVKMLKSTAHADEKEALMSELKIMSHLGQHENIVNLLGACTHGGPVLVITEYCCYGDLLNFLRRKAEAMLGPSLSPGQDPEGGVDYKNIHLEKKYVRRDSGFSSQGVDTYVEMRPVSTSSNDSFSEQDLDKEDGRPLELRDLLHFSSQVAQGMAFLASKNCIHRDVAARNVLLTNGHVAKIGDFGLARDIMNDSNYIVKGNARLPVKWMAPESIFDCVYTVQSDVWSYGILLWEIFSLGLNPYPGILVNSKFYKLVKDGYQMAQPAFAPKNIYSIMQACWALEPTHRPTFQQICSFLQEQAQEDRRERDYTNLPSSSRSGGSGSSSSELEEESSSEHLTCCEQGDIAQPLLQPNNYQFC

LYN = target: T7, LYN (Homo sapiens, UniProt P07948)
T7 construct: purchased Eurofins DiscoverX KINOMEscan (scanTK)

[1] = target: T8, ABL1(Q252H)-nonphosphorylated (Homo sapiens, UniProt P00519, Q252H)
T8 construct: purchased Eurofins DiscoverX KINOMEscan (scanTK)

ROS1 = target: T9, ROS1 (Homo sapiens, UniProt P08922)
T9 construct: purchased Eurofins DiscoverX KINOMEscan (scanTK)
T9 sequence (P08922 28-2347): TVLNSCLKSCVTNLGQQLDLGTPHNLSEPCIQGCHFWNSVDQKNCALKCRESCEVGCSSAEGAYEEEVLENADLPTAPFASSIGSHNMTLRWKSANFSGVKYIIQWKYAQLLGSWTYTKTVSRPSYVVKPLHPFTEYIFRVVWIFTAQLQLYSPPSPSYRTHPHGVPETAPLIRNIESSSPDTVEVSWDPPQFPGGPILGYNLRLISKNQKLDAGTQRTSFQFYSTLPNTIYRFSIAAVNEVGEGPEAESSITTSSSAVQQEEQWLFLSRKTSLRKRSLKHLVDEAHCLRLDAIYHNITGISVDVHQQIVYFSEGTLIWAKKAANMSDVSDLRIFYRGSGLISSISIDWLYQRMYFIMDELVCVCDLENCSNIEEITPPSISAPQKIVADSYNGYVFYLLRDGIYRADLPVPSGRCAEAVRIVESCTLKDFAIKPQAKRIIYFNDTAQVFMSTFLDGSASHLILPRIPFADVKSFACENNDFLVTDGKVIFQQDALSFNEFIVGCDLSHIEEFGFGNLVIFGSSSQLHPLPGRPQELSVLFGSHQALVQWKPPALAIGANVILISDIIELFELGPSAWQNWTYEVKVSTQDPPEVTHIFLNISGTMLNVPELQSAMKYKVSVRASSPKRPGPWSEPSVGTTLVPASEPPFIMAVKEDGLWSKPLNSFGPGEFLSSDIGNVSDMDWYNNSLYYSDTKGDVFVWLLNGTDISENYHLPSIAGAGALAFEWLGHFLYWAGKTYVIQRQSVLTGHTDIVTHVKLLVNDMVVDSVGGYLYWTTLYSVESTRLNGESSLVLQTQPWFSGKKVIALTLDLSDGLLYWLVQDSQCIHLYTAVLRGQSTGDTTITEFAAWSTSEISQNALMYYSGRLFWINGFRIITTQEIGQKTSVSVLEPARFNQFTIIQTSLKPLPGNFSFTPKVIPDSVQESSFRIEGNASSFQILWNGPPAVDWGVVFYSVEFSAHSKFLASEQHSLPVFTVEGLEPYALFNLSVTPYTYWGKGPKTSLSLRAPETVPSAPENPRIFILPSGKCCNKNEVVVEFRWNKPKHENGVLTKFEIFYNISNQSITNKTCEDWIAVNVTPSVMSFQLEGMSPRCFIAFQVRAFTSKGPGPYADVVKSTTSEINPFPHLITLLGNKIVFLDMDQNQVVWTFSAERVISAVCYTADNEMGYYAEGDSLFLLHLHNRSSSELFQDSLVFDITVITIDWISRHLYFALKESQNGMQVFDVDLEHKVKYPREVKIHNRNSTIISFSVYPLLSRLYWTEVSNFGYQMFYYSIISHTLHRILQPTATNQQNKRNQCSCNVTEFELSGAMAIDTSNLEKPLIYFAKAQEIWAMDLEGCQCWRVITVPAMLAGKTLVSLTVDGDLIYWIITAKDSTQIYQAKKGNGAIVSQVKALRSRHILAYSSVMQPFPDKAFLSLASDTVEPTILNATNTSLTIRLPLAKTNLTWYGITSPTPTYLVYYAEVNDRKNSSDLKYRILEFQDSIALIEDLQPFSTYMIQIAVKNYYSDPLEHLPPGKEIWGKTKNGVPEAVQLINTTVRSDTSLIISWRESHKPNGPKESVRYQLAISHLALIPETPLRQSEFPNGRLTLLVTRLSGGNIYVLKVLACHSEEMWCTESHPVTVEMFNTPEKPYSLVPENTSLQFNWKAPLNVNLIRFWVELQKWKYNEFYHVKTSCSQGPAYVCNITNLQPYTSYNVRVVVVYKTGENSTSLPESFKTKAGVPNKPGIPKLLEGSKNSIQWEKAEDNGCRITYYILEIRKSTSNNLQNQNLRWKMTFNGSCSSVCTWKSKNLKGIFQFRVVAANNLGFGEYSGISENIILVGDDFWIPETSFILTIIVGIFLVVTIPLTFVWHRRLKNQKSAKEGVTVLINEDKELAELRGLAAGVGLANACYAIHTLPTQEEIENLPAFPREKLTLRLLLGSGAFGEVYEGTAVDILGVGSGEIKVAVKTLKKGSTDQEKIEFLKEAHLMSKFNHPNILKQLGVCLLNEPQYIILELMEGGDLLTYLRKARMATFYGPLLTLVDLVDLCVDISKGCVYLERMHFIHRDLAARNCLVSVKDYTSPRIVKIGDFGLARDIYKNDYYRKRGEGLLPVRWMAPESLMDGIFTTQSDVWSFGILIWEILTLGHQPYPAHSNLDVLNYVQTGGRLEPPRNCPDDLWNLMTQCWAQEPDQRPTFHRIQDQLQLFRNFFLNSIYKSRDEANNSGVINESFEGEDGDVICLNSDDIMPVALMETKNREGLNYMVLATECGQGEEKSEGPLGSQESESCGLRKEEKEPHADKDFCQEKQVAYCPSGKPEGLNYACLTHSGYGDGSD

TNK2 = target: T10, TNK2 (Homo sapiens, UniProt Q07912)
T10 construct: purchased Eurofins DiscoverX KINOMEscan (scanTK)

CSK = target: T11, CSK (Homo sapiens, UniProt P41240)
T11 construct: purchased Eurofins DiscoverX KINOMEscan (scanTK)

[2] = target: T12, JAK1(JH1domain-catalytic) (Homo sapiens, UniProt P23458)
T12 construct: JAK1(JH1domain-catalytic); purchased Eurofins DiscoverX KINOMEscan (scanTK)
T12 sequence (P23458 875-1154 limits assumed): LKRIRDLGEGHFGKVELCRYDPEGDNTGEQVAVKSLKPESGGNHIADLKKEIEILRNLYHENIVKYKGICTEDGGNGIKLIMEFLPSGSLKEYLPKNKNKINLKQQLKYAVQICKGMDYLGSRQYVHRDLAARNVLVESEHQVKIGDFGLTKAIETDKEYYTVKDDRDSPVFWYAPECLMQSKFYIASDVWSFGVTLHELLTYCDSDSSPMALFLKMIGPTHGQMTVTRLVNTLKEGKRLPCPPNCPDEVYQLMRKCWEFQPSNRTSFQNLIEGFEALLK

ALK = target: T13, ALK (Homo sapiens, UniProt Q9UM73)
T13 construct: purchased Eurofins DiscoverX KINOMEscan (scanTK)
T13 sequence (Q9UM73 19-1620): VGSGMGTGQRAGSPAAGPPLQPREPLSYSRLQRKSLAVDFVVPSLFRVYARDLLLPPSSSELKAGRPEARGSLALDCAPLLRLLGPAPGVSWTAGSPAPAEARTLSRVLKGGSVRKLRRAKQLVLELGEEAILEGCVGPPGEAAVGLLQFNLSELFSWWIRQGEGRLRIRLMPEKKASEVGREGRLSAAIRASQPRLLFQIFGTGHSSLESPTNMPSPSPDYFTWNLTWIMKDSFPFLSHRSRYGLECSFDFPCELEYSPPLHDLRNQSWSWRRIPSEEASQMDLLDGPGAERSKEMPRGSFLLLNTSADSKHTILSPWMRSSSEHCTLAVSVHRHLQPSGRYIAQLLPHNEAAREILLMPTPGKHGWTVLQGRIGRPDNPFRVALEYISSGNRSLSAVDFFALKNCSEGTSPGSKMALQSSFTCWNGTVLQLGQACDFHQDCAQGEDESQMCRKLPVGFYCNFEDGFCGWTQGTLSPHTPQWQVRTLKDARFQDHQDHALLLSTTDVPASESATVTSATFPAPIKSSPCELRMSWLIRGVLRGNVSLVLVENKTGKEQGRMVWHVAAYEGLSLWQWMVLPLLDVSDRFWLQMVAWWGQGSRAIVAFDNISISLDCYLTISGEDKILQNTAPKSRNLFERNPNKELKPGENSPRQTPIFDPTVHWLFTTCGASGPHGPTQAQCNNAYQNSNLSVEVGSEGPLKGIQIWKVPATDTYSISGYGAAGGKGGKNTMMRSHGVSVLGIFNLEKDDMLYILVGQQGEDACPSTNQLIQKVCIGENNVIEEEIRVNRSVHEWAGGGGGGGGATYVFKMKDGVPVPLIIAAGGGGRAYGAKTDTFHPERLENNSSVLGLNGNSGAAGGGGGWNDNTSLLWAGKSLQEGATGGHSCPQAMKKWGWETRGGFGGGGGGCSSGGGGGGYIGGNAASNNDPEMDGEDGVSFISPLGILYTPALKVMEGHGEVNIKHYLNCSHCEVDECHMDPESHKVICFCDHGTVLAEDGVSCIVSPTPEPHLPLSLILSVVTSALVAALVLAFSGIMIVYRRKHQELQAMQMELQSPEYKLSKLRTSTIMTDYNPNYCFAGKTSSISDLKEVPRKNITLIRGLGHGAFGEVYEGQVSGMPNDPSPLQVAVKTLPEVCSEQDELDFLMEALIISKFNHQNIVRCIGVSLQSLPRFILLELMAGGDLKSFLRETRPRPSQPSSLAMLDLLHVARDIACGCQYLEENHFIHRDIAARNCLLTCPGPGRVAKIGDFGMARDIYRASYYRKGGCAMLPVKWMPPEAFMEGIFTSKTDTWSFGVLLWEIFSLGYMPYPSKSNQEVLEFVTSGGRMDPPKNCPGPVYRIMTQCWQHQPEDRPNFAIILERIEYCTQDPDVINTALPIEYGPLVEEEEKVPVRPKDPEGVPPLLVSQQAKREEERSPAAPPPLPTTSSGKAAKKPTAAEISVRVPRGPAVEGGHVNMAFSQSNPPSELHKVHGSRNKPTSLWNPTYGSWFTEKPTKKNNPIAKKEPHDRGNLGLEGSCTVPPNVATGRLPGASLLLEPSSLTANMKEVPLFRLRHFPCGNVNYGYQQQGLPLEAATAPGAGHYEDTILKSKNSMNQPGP

RET(M918T) = target: T14, RET(M918T) (Homo sapiens, UniProt P07949, M918T)
T14 construct: purchased Eurofins DiscoverX KINOMEscan (scanTK)

MET(M1250T) = target: T15, MET(M1250T) (Homo sapiens, UniProt P08581, M1250T)
T15 construct: purchased Eurofins DiscoverX KINOMEscan (scanTK)

[3] = target: T16, EGFR(L747-S752del, P753S) (Homo sapiens, UniProt P00533, DEL747-752/P753S)
T16 construct: purchased Eurofins DiscoverX KINOMEscan (scanTK)

KIT-autoinhibited = target: T17, KIT-autoinhibited (Homo sapiens, UniProt P10721)
T17 construct: purchased Eurofins DiscoverX KINOMEscan (scanTK)

[4] = @1000nM, read-out: % difference (compound - Ib %Control)

difference in % of control versus compound Ib at 1 µM (TRKA; @1000nM): 8%
remaining binding at 1 µM (TRKA; @1000nM, read-out: %Control): 93%
remaining binding at 1 µM (TRKA; read-out: %Control @1000nM): 93%
remaining binding at 1 µM (PYK2; @1000nM, read-out: %Control): 81%
remaining binding at 1 µM (PYK2; read-out: %Control @1000nM): 81%
difference in %Control versus compound Ib at 1 µM (FLT3(N841I); @1000nM): 54%
remaining binding at 1 µM (FLT3(N841I); @1000nM, read-out: %Control): 73%
remaining binding at 1 µM (FLT3(N841I); read-out: %Control @1000nM): 73%
remaining binding at 1 µM (SRC; @1000nM, read-out: %Control): 66%
remaining binding at 1 µM (SRC; read-out: %Control @1000nM): 66%
difference in %Control vs reference Ib at 1 µM (BLK; [4]): 0.15%
remaining binding at 1 µM (BLK; @1000nM, read-out: %Control): 0.2%
remaining binding at 1 µM (BLK; read-out: %Control @1000nM): 0.2%
difference in %Control versus compound Ib at 1 µM (CSF1R-autoinhibited; @1000nM): 20%
remaining binding at 1 µM (CSF1R-autoinhibited; @1000nM, read-out: %Control): 97%
remaining binding at 1 µM (CSF1R-autoinhibited; read-out: %Control @1000nM): 97%
remaining binding at 1 µM (LYN; @1000nM, read-out: %Control): 72%
remaining binding at 1 µM (LYN; read-out: %Control @1000nM): 72%
difference in %Control versus reference compound Ib at 1 µM ([1]; @1000nM): 23%
remaining binding at 1 µM ([1]; @1000nM, read-out: %Control): 36%
remaining binding at 1 µM ([1]; read-out: %Control @1000nM): 36%
%Control difference versus reference Ib at 1 µM (ROS1; [4]): 3%
remaining binding at 1 µM (ROS1; @1000nM, read-out: %Control): 100%
remaining binding at 1 µM (ROS1; read-out: %Control @1000nM): 100%
remaining binding at 1 µM (TNK2; @1000nM, read-out: %Control): 94%
remaining binding at 1 µM (TNK2; read-out: %Control @1000nM): 94%
difference in %Control from reference compound Ib at 1 µM (CSK; @1000nM): 25.5%
remaining binding at 1 µM (CSK; @1000nM, read-out: %Control): 30%
remaining binding at 1 µM (CSK; read-out: %Control @1000nM): 30%
difference in %Control versus compound Ib at 1 µM ([2]; @1000nM): 6%
remaining binding at 1 µM ([2]; @1000nM, read-out: %Control): 100%
remaining binding at 1 µM ([2]; read-out: %Control @1000nM): 100%
difference in %Control versus compound Ib at 1 µM (ALK; @1000nM): -25%
remaining binding at 1 µM (ALK; @1000nM, read-out: %Control): 69%
remaining binding at 1 µM (ALK; read-out: %Control @1000nM): 69%
remaining binding at 1 µM (RET(M918T); @1000nM, read-out: %Control): 87%
remaining binding at 1 µM (RET(M918T); read-out: %Control @1000nM): 87%
remaining binding at 1 µM (MET(M1250T); @1000nM, read-out: %Control): 96%
remaining binding at 1 µM (MET(M1250T); read-out: %Control @1000nM): 96%
difference in %Control versus compound Ib at 1 µM ([3]; @1000nM): 94.5%
remaining binding at 1 µM ([3]; @1000nM, read-out: %Control): 100%
remaining binding at 1 µM ([3]; read-out: %Control @1000nM): 100%
remaining binding at 1 µM (KIT-autoinhibited; @1000nM, read-out: %Control): 94%
remaining binding at 1 µM (KIT-autoinhibited; read-out: %Control @1000nM): 94%
Compound: CCOC(=O)c1cnc(S(C)(=O)=O)nc1N1CCC[C@@H](n2nc(-c3ccc(Oc4ccccc4)cc3)c3c(N)ncnc32)C1 [Compound 8c, Ethyl (R)-4-(3-(4-Amino-3-(4-phenoxyphenyl)-1H-pyrazolo[3,4-d]pyrimidin-1-yl)piperidin-1-yl)-2-(methylsulfonyl)pyrimidine-5-carboxylate]
